These results are taken from ChEMBL document CHEMBL3414470, “Synthesis and biological evaluation of 4-oxycoumarin derivatives as a new class of antifilarial agents” (Eur J Med Chem, 2015).

Converted amounts (≈) assume the structure as drawn. The source made the active and inactive calls. No cut-off for these calls is given here.

What is called IC50 is the concentration needed to halve the response being measured. The term CC50 denotes the concentration giving 50% cytotoxicity. For orientation: inhibition means the relative decrease from the control value, in per cent.

Data set [1] deals with Brugia malayi. The data set can be described thus: Antifilarial activity against Brugia malayi adult worm assessed as reduction in motility after 5 days by MTT dye reduction assay. The format is functional, organism-based. In general terms: Tetrazolium assays rely on reduction of a dye to a coloured formazan, in cell work by metabolically active cells.
In data set [2] the test system is Brugia malayi. The data set is described as follows: Antifilarial activity against Brugia malayi microfilaria assessed as reduction in motility after 5 days by MTT dye reduction assay. The format is functional, organism-based.
The test system of data set [3] is Vero. The data set is described as follows: (§1) Cytotoxicity against African green monkey Vero cells after 72 hrs by resazurin dye-based fluorescence assay. It counts as cell-based. The following applies: chlorocebus sabaeus, vero, 72 h.
Data set [4] deals with Vero. The data set can be described thus: (§2) Selectivity index, ratio of CC50 for African green monkey Vero cells to IC50 for Brugia malayi adult worm. The format is functional.
Data set [5] relates to Brugia malayi. The data set can be described thus: Antifilarial activity against Brugia malayi microfilaria assessed as reduction in motility at 1.12 uM after 5 days by MTT dye reduction assay. The format is functional, organism-based.
The subject of data set [6] is Brugia malayi. The data set can be described thus: Antifilarial activity against Brugia malayi adult worm assessed as reduction in motility at 8.9 uM after 5 days by MTT dye reduction assay. The format is functional, organism-based.
The subject of data set [7] is Brugia malayi. The data set can be described thus: Antifilarial activity against Brugia malayi adult worm assessed as reduction in motility at 2.17 uM after 5 days by MTT dye reduction assay. The format is functional, organism-based.
The subject of data set [8] is Brugia malayi. The data set can be described thus: Antifilarial activity against Brugia malayi adult worm assessed as reduction in motility at 4.45 uM after 5 days by MTT dye reduction assay. It counts as functional, organism-based.
The test system of data set [9] is Brugia malayi. The data set is described as follows: Antifilarial activity against Brugia malayi microfilaria assessed as reduction in motility at 4.45 uM after 5 days by MTT dye reduction assay. The format is functional, organism-based.
For data set [10], the system named is Brugia malayi. The data set is described as follows: Antifilarial activity against Brugia malayi microfilaria assessed as reduction in motility at 2.17 uM after 5 days by MTT dye reduction assay. The format is functional, organism-based.
In data set [11] the test system is Brugia malayi. The data set is described as follows: Antifilarial activity against Brugia malayi microfilaria assessed as reduction in motility at 8.9 uM after 5 days by MTT dye reduction assay. It counts as functional, organism-based.
For data set [12], the system named is Brugia malayi. The data set is described as follows: Antifilarial activity against Brugia malayi adult worm assessed as reduction in motility at 1.12 uM after 5 days by MTT dye reduction assay. The format is functional, organism-based.
Data set [13] relates to Vero. The data set can be described thus: (§3) Selectivity index, ratio of CC50 for African green monkey Vero cells to IC50 for Brugia malayi microfilaria. It counts as functional.
Data set [14] can be described thus: as §2. It counts as functional.
The subject of data set [15] is Brugia malayi. The data set is described as follows: Antifilarial activity against Brugia malayi microfilaria assessed as reduction in motility at 5 uM after 5 days by MTT dye reduction assay. The format is functional. As to conditions: 120 h.
The subject of data set [16] is Brugia malayi. The data set is described as follows: Antifilarial activity against Brugia malayi adult worm infected in jird model assessed as adulticidal activity at 100 mg/kg, sc after 5 days measured till day 45 relative to control. The format is functional. As to conditions: route subcutaneous.
Data set [17] has as its system Brugia malayi. The data set can be described thus: Antifilarial activity against Brugia malayi adult worm assessed as reduction in motility at 1.25 uM after 5 days by MTT dye reduction assay. The format is functional. As to conditions: 120 h.
The subject of data set [18] is Brugia malayi. The data set is described as follows: Antifilarial activity against Brugia malayi microfilaria assessed as reduction in motility at 0.625 uM after 5 days by MTT dye reduction assay. It counts as functional. The following applies: 120 h.
In data set [19] the test system is Brugia malayi. The data set is described as follows: Antifilarial activity against Brugia malayi adult worm assessed as reduction in motility at 0.312 uM after 5 days by MTT dye reduction assay. The format is functional. As to conditions: 120 h.
For data set [20], the system named is Brugia malayi. The data set is described as follows: Antifilarial activity against Brugia malayi microfilaria assessed as reduction in motility at 1.25 uM after 5 days by MTT dye reduction assay. The format is functional. The following applies: 120 h.
Data set [21] has as its system Brugia malayi. The data set is described as follows: Antifilarial activity against Brugia malayi microfilaria assessed as reduction in motility at 2.5 uM after 5 days by MTT dye reduction assay. The format is functional. The following applies: 120 h.
The subject of data set [22] is Brugia malayi. The data set is described as follows: Antifilarial activity against Brugia malayi adult worm infected in jird model assessed as sterile female at 100 mg/kg, sc after 5 days measured till day 45 relative to control. The following applies: route subcutaneous. It counts as functional.
The subject of data set [23] is Brugia malayi. The data set can be described thus: Antifilarial activity against Brugia malayi adult worm assessed as reduction in motility at 5 uM after 5 days by MTT dye reduction assay. As to conditions: 120 h. The format is functional.
For data set [24], the system named is Brugia malayi. The data set can be described thus: Antifilarial activity against Brugia malayi adult worm assessed as reduction in motility at 2.5 uM after 5 days by MTT dye reduction assay. It counts as functional. As to conditions: 120 h.
Data set [25] concerns Brugia malayi. The data set can be described thus: Antifilarial activity against Brugia malayi microfilariae infected in jird model assessed as microfilaricidal activity at 100 mg/kg, sc after 5 days measured till day 45 relative to control. As to conditions: route subcutaneous. It counts as functional.
The test system of data set [26] is Brugia malayi. The data set is described as follows: Antifilarial activity against Brugia malayi microfilaria assessed as reduction in motility at 0.312 uM after 5 days by MTT dye reduction assay. It counts as functional. As to conditions: 120 h.
The test system of data set [27] is Brugia malayi. The data set is described as follows: Antifilarial activity against Brugia malayi adult worm assessed as reduction in motility at 0.625 uM after 5 days by MTT dye reduction assay. The following applies: 120 h. The format is functional.
The nature of data set [28]: as §3. It counts as functional.
A short description of data set [29]: as §1. The format is cell-based. The following applies: chlorocebus sabaeus, Vero cells.
Data set [30] has as its system Brugia malayi. The data set can be described thus: Antifilarial activity against Brugia malayi microfilaria assessed as reduction in motility at 10 uM after 5 days by MTT dye reduction assay. It counts as functional, organism-based.
Data set [31] concerns Brugia malayi. The data set is described as follows: Antifilarial activity against Brugia malayi adult worm assessed as reduction in motility at 10 uM after 5 days by MTT dye reduction assay. It counts as functional, organism-based.

For the compound IVERMECTIN [listing 1 of 2 here], the figures for the half-inhibitory concentration (IC50) in the data set on Brugia malayi [1] and in the data set on Brugia malayi [2] were 1800 nM and 4000 nM, respectively. The CC50 with Vero [3] was determined as 53200 nM.
With IVERMECTIN [listing 2 of 2 here], the Ratio CC50/IC50 worked out at 29.5 in the data set with Vero [4] and 13.3 with Vero [13]. The inhibition in the data set on Brugia malayi [5] amounted to 50%; in the data set on Brugia malayi [6], 61.2%; in the data set on Brugia malayi [7] it was 21.6%; in the data set with Brugia malayi [8] it was 35.3%; in the data set on Brugia malayi [9], 1%; in the data set on Brugia malayi [10], 1%. The inhibition was found to be 0% in the data set on Brugia malayi [11] and 17.7% in the data set on Brugia malayi [12]. The MIC is 8.9 µM in the data set with Brugia malayi [1] and 10 µM with Brugia malayi [2].
Take `CN1CCN(CC(O)COc2cc(=O)oc3ccccc23)CC1` (stereo not given): the figures for the “Ratio CC50/IC50” value in data set [14] and in data set [28] were more than 57.8 and more than 357.14, respectively. The inhibition at 5 µM in the data set on Brugia malayi [15] was found to be 100%; in the data set on Brugia malayi [23], 85.6%. Also, the Activity came out at 44.4% in the data set on Brugia malayi [16], 0% in the data set with Brugia malayi [22] and 30.4% in the data set with Brugia malayi [25]. Moreover, the IC50 in the data set with Brugia malayi [1] (Brugia malayi, 120 h) was found to be 1730 nM; in the data set on Brugia malayi [2] (Brugia malayi, 120 h), 280 nM. Further, the MIC with Brugia malayi [1] (Brugia malayi, 120 h) stood at 5 µM (≈ 1.59 µg/mL); in the data set on Brugia malayi [2] (Brugia malayi, 120 h), 2.5 µM (≈ 0.796 µg/mL). For the same compound, the inhibition at 1.25 µM in the data set with Brugia malayi [17] amounted to 38.7%; with Brugia malayi [20] it was 75%. The inhibition at 0.625 µM is 75% with Brugia malayi [18] and 29.8% in the data set on Brugia malayi [27]. Besides, the inhibition at 0.312 µM in the data set on Brugia malayi [19] amounted to 11.8%; with Brugia malayi [26] it was 75%. In addition, the inhibition at 2.5 µM with Brugia malayi [21] was determined as 75%; in the data set on Brugia malayi [24] it was 45.8%. The compound also displayed a CC50 at 72 h in [29] of more than 100000 nM.
In the case of `O=c1cc(OCC(O)CN2CCOCC2)c2ccccc2o1` (stereo not given), the inhibition at 5 µM was 1% in the data set on Brugia malayi [15] and 20.1% in the data set with Brugia malayi [23]. For the same compound, the MIC result in the data set with Brugia malayi [1] and with Brugia malayi [2] was “inactive” throughout. Moreover, the result in the data set with Brugia malayi [30] and in the data set with Brugia malayi [31] was inactive.
For `O=c1cc(OCC(O)CNC2CC2)c2ccccc2o1` (stereo not given), the “Ratio CC50/IC50” value in data set [14] was more than 113.6; in [28], more than 263.15. Further, the inhibition at 5 µM with Brugia malayi [15] stood at 100%; with Brugia malayi [23], 97.5%. In addition, the figures for the Activity with Brugia malayi [16], in the data set with Brugia malayi [22] and with Brugia malayi [25] were 52.8%, 0% and 31.4%, respectively. The IC50 with Brugia malayi [1] (Brugia malayi, 120 h) was found to be 880 nM; in the data set with Brugia malayi [2] (Brugia malayi, 120 h), 380 nM. In addition, the MIC worked out at 5 µM (≈ 1.38 µg/mL) in the data set on Brugia malayi [1] (Brugia malayi, 120 h) and 2.5 µM (≈ 0.688 µg/mL) in the data set with Brugia malayi [2] (Brugia malayi, 120 h). Also, the results for the inhibition at 1.25 µM in the data set with Brugia malayi [17] and in the data set on Brugia malayi [20] were 43.7% and 75%, respectively. The inhibition at 0.625 µM in the data set with Brugia malayi [18] turned out to be 75%; in the data set with Brugia malayi [27] it was 34.3%. Further, the inhibition at 2.5 µM in the data set on Brugia malayi [21] came out at 75%; with Brugia malayi [24], 56.4%. In addition, in data set [29], the CC50 at 72 h was more than 100000 nM.
As to `O=c1cc(OCC(O)CN2CCCCC2)c2ccccc2o1` (stereo not given), the inhibition at 5 µM in the data set with Brugia malayi [15] is 1%; in the data set with Brugia malayi [23] it was 23.7%. The MIC result with Brugia malayi [1] and with Brugia malayi [2] was “inactive” throughout. Besides, the result with Brugia malayi [30] and in the data set on Brugia malayi [31] was inactive.
